Source: patent US10131679B2, “Substituted dihydropyrrolopyrazole compound” (UBE INDUSTRIES, LTD., priority 2014, dated 2018)

Key:
[1] = tested on: human large intestine cancer cell line (HCT-116); assay: Human large intestine cancer (HCT-116) cell growth inhibition test; format: cell-based; conditions: 72 h, HCT-116, culture for 3 days, sulforhodamine B absorbance
Description: Human Large Intestine Cancer (HCT-116) Cell Growth Inhibition Test
The measurement of a human large intestine cancer cell growth inhibitory effect was carried out by modifying the method of Simak et al. (Cancer Research, 69, 6208 (2009)).
A human large intestine cancer cell line (HCT-116) (manufactured by DS Pharma Biomedical Co., Ltd., Cat. No. EC91091005) was cultured in McCoy's 5a (manufactured by GIBCO/Thermo Fisher Scientific, Inc., REF. 16600-082) medium containing 10% FBS (manufactured by GIBCO/Thermo Fisher Scientific, Inc., REF. 10082-147) and 1% penicillin/streptomycin/amphotericin B (manufactured by GIBCO/Thermo Fisher Scientific, Inc., REF. 15240-096) and inoculated at 1.0×10^3 cells/well in a 96-well plate (manufactured by Corning Inc., REF. 353072). After overnight culture in a carbon dioxide incubator, it was replaced with a fresh McCoy's 5a medium containing 10% FBS on the next day, and a test compound dissolved in DMSO (manufactured by Wako Pure Chemical Industries, Ltd., Code No. 043-07216) (final DMSO concentration: 0.1%) was added and left standing in a carbon dioxide incubator. After culturing for 3 days, the absorbance of each well was measured by using In Vitro Toxicology Assay Kit Sulforhodamine B based (manufactured by Sigma-Aldrich Co. LLC., Pcode 1001910706).
The rate of inhibition of cell growth at each concentration was calculated from the test compound concentration and the absorbance of sulforhodamine B, and the concentration of the test compound necessary for inhibiting 50% of cell growth (IC50 value) was calculated by using EXSUS (version 8.0.0 or version 8.0.1, manufactured by CAC Exicare Corp.).

[2] = target: T1, CDK7 (Homo sapiens, UniProt P50613); assay: CDK7 enzyme inhibition test; format: biochemical; conditions: Ki=IC50/(1+S/Km); 33P bound to MBP, [γ-33P]ATP, 30° C. for 20 minutes; read-out: Ki value of CDK7 inhibitory activity
T1 construct: purchased Carna Biosciences, Inc. 04-108
T1 sequence (P50613 whole entry): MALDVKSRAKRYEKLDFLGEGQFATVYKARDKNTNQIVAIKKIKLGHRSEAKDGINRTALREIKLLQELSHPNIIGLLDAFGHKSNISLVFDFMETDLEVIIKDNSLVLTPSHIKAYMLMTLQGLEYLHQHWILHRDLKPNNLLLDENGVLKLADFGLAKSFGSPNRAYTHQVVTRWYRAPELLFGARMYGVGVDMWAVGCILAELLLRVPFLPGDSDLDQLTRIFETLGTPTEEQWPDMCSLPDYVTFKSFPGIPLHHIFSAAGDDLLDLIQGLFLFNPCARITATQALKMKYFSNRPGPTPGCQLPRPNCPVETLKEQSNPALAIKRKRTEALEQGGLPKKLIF
T1 sequence (P51946 whole entry partner): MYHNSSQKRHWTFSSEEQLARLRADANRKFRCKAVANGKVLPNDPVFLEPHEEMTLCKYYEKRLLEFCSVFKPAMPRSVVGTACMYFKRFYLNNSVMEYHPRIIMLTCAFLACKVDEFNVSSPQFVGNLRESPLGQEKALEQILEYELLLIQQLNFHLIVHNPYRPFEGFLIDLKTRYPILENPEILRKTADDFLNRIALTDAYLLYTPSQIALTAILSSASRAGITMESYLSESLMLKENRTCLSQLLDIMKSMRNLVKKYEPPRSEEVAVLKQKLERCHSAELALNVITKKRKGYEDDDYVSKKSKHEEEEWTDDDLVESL
T1 sequence (P51948 whole entry partner): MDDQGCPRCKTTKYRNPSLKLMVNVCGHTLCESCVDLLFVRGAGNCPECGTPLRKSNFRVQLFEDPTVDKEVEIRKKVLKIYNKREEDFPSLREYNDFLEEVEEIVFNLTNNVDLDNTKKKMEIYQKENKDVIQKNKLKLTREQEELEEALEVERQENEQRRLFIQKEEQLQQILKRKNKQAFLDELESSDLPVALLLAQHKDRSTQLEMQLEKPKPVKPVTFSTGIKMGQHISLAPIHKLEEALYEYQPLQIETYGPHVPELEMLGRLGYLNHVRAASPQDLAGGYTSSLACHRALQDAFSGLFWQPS
Description: CDK7 Enzyme Inhibition Test
The preparation of a buffer solution was performed by mixing a N-2-hydroxyethylpiperazine-N′-2-ethanesulfonic acid buffer solution (HEPES buffer solution) (pH 7.4), dithiothreitol (DTT), Triton X-100, and magnesium chloride (MgCl2). A 500 μM [γ-^33P]ATP solution was used by diluting a 10 mM ATP solution and a commercially available [γ-^33P]ATP solution (manufactured by PerkinElmer, Inc., Code No. NEG-302H) with the buffer solution. A CDK7 solution was used by diluting commercially available CDK7 (manufactured by Carna Biosciences, Inc., Catalog No. 04-108) with the buffer solution. A substrate solution was used by diluting myelin basic protein (MBP) with the buffer solution. As for the preparation of a reaction solution, the buffer solution, the 500 μM [γ-^33P]ATP solution, the CDK7 solution, and the substrate solution were mixed at 4° C. to obtain a reaction solution.
CDK7 enzyme reaction was performed by adding 5 μL of a test compound solution prepared with 10% dimethyl sulfoxide (DMSO)/90% injectable distilled water, and 45 μL of the reaction solution to a 1.5 mL microtube at 4° C. and reacting in the microtube at 30° C. for 20 minutes in a water bath incubator. After the reaction, a 10% aqueous trichloroacetic acid (TCA) solution was added to each microtube while cooled to 4° C., and mixed to terminate the reaction. The resultant was left standing at 4° C. for 10 minutes and then centrifuged in a centrifuge, and the supernatant was discarded. Next, a 2% aqueous TCA solution was added, mixed, and then centrifuged in a centrifuge, and the supernatant was discarded. This washing operation was performed twice. After the washing, precipitates were dissolved in a 1 N aqueous sodium hydroxide (NaOH) solution, and the energy quantity (radioactivity) of the reaction product was measured with a liquid scintillation counter.
The calculation of the inhibitory activity of the test compound against CDK7 was performed as a test compound concentration inhibiting 50% of the amount of ^33P bound to MBP (IC50 value) by using EXSUS (version 8.0.0 or version 8.0.1, manufactured by CAC Exicare Corp.).
The calculation of a Ki value was performed according to the following calculation expression. S means the concentration of ATP contained in the reaction solution, and Km means a Michaelis-Menten constant. Ki=IC50/(1+S/Km)

Row | SMILES | Ki [2] [nM] | IC50 [1] [nM]
1 | CC(C)(CO)C(NC(=O)N1Cc2c(NC(=O)C3([Si](C)(C)C)CCC3)n[nH]c2C1(C)C)c1ccccc1 (single isomer, unassigned; (+)) [IV-672, (+)-N-(3-Hydroxy-2,2-dimethyl-1-phenylpropyl)-6,6-dimethyl-3-[1-(trimethylsilyl)cyclobutanecarboxamido]-4,6-dihydropyrrolo[3,4-c]pyrazole-5(1H)-carboxamide] | – | ≤ 500
2 | CC1(C)c2[nH]nc(NC(=O)C3([Si](C)(C)C)CC3)c2CN1C(=O)[C@H](CO)c1ccccc1 [III-592, (S)—N-[5-(3-Hydroxy-2-phenylpropanoyl)-6,6-dimethyl-1,4,5,6-tetrahydropyrrolo[3,4-c]pyrazol-3-yl]-1-(trimethylsilyl)cyclopropanecarboxamide] | ≤ 50 | ≤ 500
3 | CC1(C)c2[nH]nc(NC(=O)C3([Si](C)(C)C)CCC3)c2CN1C(=O)CC(CO)c1ccccc1 (stereo not shown) [IV-558, N-[5-(4-Hydroxy-3-phenylbutanoyl)-6,6-dimethyl-1,4,5,6-tetrahydropyrrolo[3,4-c]pyrazol-3-yl]-1-(trimethylsilyl)cyclobutanecarboxamide] | – | ≤ 500
4 | CC1(C)c2[nH]nc(NC(=O)C3([Si](C)(C)C)CCC3)c2CN1C(=O)CC(O)c1ccccc1 (stereo not shown) [IV-562, N-[5-(3-Hydroxy-3-phenylpropanoyl)-6,6-dimethyl-1,4,5,6-tetrahydropyrrolo[3,4-c]pyrazol-3-yl]-1-(trimethylsilyl)cyclobutanecarboxamide] | – | ≤ 500
5 | CCC(O)(CC)C[C@@H](NC(=O)N1Cc2c(NC(=O)C3([Si](C)(C)C)CCC3)n[nH]c2C1(C)C)c1ccccc1 [IV-759, (R)—N-(3-Ethyl-3-Hydroxy-1-phenylpentyl)-6,6-dimethyl-3-[1-(trimethylsilyl)cyclobutanecarboxamido]-4,6-dihydropyrrolo[3,4-c]pyrazole-5(1H)-carboxamide] | – | ≤ 500
6 | CC1(C)c2[nH]nc(NC(=O)C3([Si](C)(C)C)CCC3)c2CN1C(=O)N[C@@H](CO)Cc1ccccc1 [IV-861, (R)—N-(1-Hydroxy-3-phenylpropan-2-yl)-6,6-dimethyl-3-[1-(trimethylsilyl)cyclobutanecarboxamido]-4,6-dihydropyrrolo[3,4-c]pyrazole-5(1H)-carboxamide] | – | ≤ 500
7 | CC1(C)c2[nH]nc(NC(=O)C3([Si](C)(C)C)CCC3)c2CN1C(=O)C(Oc1ccccc1)c1ccccc1 (stereo not shown) [IV-1211, N-[6,6-Dimethyl-5-(2-phenoxy-2-phenylacetyl)-1,4,5,6-tetrahydropyrrolo[3,4-c]pyrazol-3-yl]-1-(trimethylsilyl)cyclobutanecarboxamide] | – | ≤ 500
8 | COCCC(C(=O)N1Cc2c(NC(=O)C3([Si](C)(C)C)CCC3)n[nH]c2C1(C)C)c1ccccc1 (stereo not shown) [IV-1224, N-[5-(4-Methoxy-2-phenylbutanoyl)-6,6-dimethyl-1,4,5,6-tetrahydropyrrolo[3,4-c]pyrazol-3-yl]-1-(trimethylsilyl)cyclobutanecarboxamide] | – | ≤ 500
9 | CC(Oc1ccccc1Cl)C(=O)N1Cc2c(NC(=O)C3([Si](C)(C)C)CCC3)n[nH]c2C1(C)C (stereo not shown) [IV-1266, N-{5-[2-(2-Chlorophenoxy)propanoyl]-6,6-dimethyl-1,4,5,6-tetrahydropyrrolo[3,4-c]pyrazol-3-yl}-1-(trimethylsilyl)cyclobutanecarboxamide] | – | ≤ 500
10 | CC(Oc1cccc(Cl)c1)C(=O)N1Cc2c(NC(=O)C3([Si](C)(C)C)CCC3)n[nH]c2C1(C)C (stereo not shown) [IV-1268, N-{5-[2-(3-Chlorophenoxy)propanoyl]-6,6-dimethyl-1,4,5,6-tetrahydropyrrolo[3,4-c]pyrazol-3-yl}-1-(trimethylsilyl)cyclobutanecarboxamide] | – | ≤ 500

Now from value to compound, other results behind:

Row | Ki [2] [nM] | SMILES | IC50 [1] [nM]
11 | ≤ 50 | CC1(C)c2[nH]nc(NC(=O)C3([Si](C)(C)C)CCC3)c2CN1C(=O)NC(c1ccccc1)C(F)(F)CO (racemic) [IV-362, N-(2,2-Difluoro-3-hydroxy-1-phenylpropyl)-6,6-dimethyl-3-[1-(trimethylsilyl)cyclobutanecarboxamido]-4,6-dihydropyrrolo[3,4-c]pyrazole-5(1H)-carboxamide] | ≤ 500
12 | ≤ 50 | COC(C(=O)N1Cc2c(NC(=O)C3([Si](C)(C)C)CCC3)n[nH]c2C1(C)C)c1cccs1 (single isomer, unassigned; (+)) [IV-1547, (+)-N-{5-[2-Methoxy-2-(thiophen-2-yl)acetyl]-6,6-dimethyl-1,4,5,6-tetrahydropyrrolo[3,4-c]pyrazol-3-yl}-1-(trimethylsilyl)cyclobutanecarboxamide] | –
13 | ≤ 50 | CC(C)(CO)C(NC(=O)N1Cc2c(NC(=O)C3([Si](C)(C)C)CCC3)n[nH]c2C1(C)C)c1cccc(F)c1 (single isomer, unassigned; (-)) [IV-920, (−)-N-[1-(3-Fluorophenyl)-3-hydroxy-2,2-dimethylpropyl]-6,6-dimethyl-3-[1-(trimethylsilyl)cyclobutanecarboxamido]-4,6-dihydropyrrolo[3,4-c]pyrazole-5(1H)-carboxamide] | –
14 | ≤ 50 | C[C@@H](Oc1ccccc1)C(=O)N1Cc2c(NC(=O)C3([Si](C)(C)C)CC3)n[nH]c2C1(C)C [III-1140, (R)—N-[6,6-Dimethyl-5-(2-phenoxypropanoyl)-1,4,5,6-tetrahydropyrrolo[3,4-c]pyrazol-3-yl]-1-(trimethylsilyl)cyclopropanecarboxamide] | ≤ 500
15 | ≤ 50 | CC(C)C(O)CNC(=O)N1Cc2c(NC(=O)C3([Si](C)(C)C)CCC3)n[nH]c2C1(C)C (stereo not shown) [IV-446, N-(2-Hydroxy-3-methylbutyl)-6,6-dimethyl-3-[1-(trimethylsilyl)cyclobutanecarboxamido]-4,6-dihydropyrrolo[3,4-c]pyrazole-5(1H)-carboxamide] | ≤ 500
16 | ≤ 50 | CC1(C)c2[nH]nc(NC(=O)C3([Si](C)(C)C)CCC3)c2CN1C(=O)NC(CO)c1cccnc1 (stereo not shown) [IV-542, N-[2-Hydroxy-1-(pyridin-3-yl)ethyl]-6,6-dimethyl-3-[1-(trimethylsilyl)cyclobutanecarboxamido]-4,6-dihydropyrrolo[3,4-c]pyrazole-5(1H)-carboxamide] | –
17 | ≤ 50 | CC1(C)c2[nH]nc(NC(=O)C3([Si](C)(C)C)CCC3)c2CN1C(=O)[C@H](CO)c1ccccc1 [IV-633, (S)—N-[5-(3-Hydroxy-2-phenylpropanoyl)-6,6-dimethyl-1,4,5,6-tetrahydropyrrolo[3,4-c]pyrazol-3-yl]-1-(trimethylsilyl)cyclobutanecarboxamide] | ≤ 500
18 | ≤ 50 | COCC(C(=O)N1Cc2c(NC(=O)C3([Si](C)(C)C)CCC3)n[nH]c2C1(C)C)c1ccccc1 (stereo not shown) [IV-634, N-[5-(3-Methoxy-2-phenylpropanoyl)-6,6-dimethyl-1,4,5,6-tetrahydropyrrolo[3,4-c]pyrazol-3-yl]-1-(trimethylsilyl)cyclobutanecarboxamide] | ≤ 500
19 | ≤ 50 | CN(C)CC(Oc1ccccc1)C(=O)N1Cc2c(NC(=O)C3([Si](C)(C)C)CCC3)n[nH]c2C1(C)C (stereo not shown) [IV-1372, N-{5-[3-(Dimethylamino)-2-phenoxypropanoyl]-6,6-dimethyl-1,4,5,6-tetrahydropyrrolo[3,4-c]pyrazol-3-yl}-1-(trimethylsilyl)cyclobutanecarboxamide] | –
